Laboratory results published in patent US20230165970A1, “COMPOSITIONS AND METHODS FOR THE TREATMENT OF BACTERIAL INFECTIONS” (priority 2017, published 2023).
≈ marks a conversion by molar mass, not a printed value. Read-outs that look alike come from different tables or passages of the source. *1 amine or outer side, *2 acyl side, *3 side chain or, on linkers, in order; H or OH if unused. Where a SMILES comes first, the peptide text is derived from it. Bridges are numbered along the chain shown (N, C = ends). Roman numbers before positions name the chains, in order. [ ]: non-standard residue; d: D form. The star is where a group is joined. ξ: configuration not given here. X8 = C#CCOCCOCCOCCOCCN1CCN(C2C[C@@H](C(=O)[*:1])[C@H](C(=O)[*:2])C2)CC1; X2 = O=C([C@@H](N[*:1])[C@H](O)CCC(F)(F)F)[*:2]; Propargyl(OCH2CH2)4CO = C#CCOCCOCCOCCOCCC(=O)*; X3 = CCCCC[C@@H](O)[C@H](N[*:1])C(=O)[*:2]; Aoc(2) = CCCCCC[C@H](N)C(=O)O; hLeu = CC(C)CC[C@H](N)C(=O)O; X7 = NCCN(NC(=O)[*:2])[*:1]; Nle = CCCC[C@H](N)C(=O)O; ξF = NC(Cc1ccccc1)C(=O)O; Dab = NCC[C@H](N)C(=O)O; ξT = CC(O)C(N)C(=O)O; azaGly = NNC(=O)O

Assays:
LPS from E. coli O111:B4 = assay: LPS binding/neutralization by Limulus Amebocyte Lysate (LAL) assay; type: biochemical; conditions: LPS 1-10,000 ng/mL, test article 0.25-10 μM; for % LPS neutralization of TM: sum of AUCs relative to maximal AUC (Table 14); for % LPS neutralization: sum of AUCs relative to maximal AUC (Table 15)
Protocol: The LAL assay (Charles River) was used to determine the binding affinity of test articles to LPS.
(§1) For the assay, 25 μL purified LPS from E. coli O111:1B4 (Sigma) at doses ranging from 1-10,000 ng/mL were incubated with 25 μL of test article at concentrations ranging from 0.25-10 NM. After 5 min incubation at 37° C., 50 μL of LAL reagent, which reacts with lipid A portion from LPS, was added to corresponding wells. After 15 min, absorbance at 405 nm was read on EnSpire plate reader (Perkin Elmer). The % LPS neutralization is calculated relative to a PBS control (background) and LPS control at each concentration (positive control).
LPS neutralization=(1−(absorbance test article−PBS with LAL reagent)/(absorbance no test article−PBS with LAL reagent))×100
To obtain a single value of LPS neutralization for each test article, the area under the curve (AUC) for dose-response of test articles from […] for each LPS concentration was calculated using Prism 7 software. The % LPS neutralization is the sum of the AUCs for each LPS concentration determined relative to the maximal AUC achievable×100.
as §1, with “O111:B4” for “O111:1B4”, “μM.” for “NM.”

Ec 2469 = type: cell-based, Escherichia coli
Protocol: (§2) Briefly, stock solutions of all antibacterial agents were prepared fresh in appropriate solvents (i.e. PBS, pH 7.4, DMSO, DI, etc.). Stock concentrations for drug conjugates were made at 12.5× the highest final assay concentration. All were serially diluted 2-fold, 8 or 12 times in a 96-well PCR plate (VWR cat. no. 83007-374). Bacterial cell suspensions generated from Mueller-Hinton agar (MHA) plate cultures were prepared in 0.85% saline and adjusted to ˜0.1 OD600 nm. […] For the conjugates, 92 μL of each cell suspension in RPMI B were added in the same 96-well plate assay format. […] Compounds were tested against a 14-strain panel comprised of E. coli (Ec), A. baumannii (Ab), P. aeruginosa (Pa), and K. pneumoniae (Kp) that were obtained from ATCC (Ec 25922, Ec 2489, Ab 19606, Pa 27853, Pa PAO1, Kp 43816, Kp 10031), Centers for Disease Control and Prevention (Ec AR0349), BEI Resources (Ab AB5075), Micromyx LLC (Ab 8990, Kp 6951), and Belgian Coordinated Collections of Microorganisms (Pa LES431) or generated in-house (Ec 25922 64X-1). […] E. coli strain ATCC 25922 and P. aeruginosa strain LES431 were run in the presence and absence of 50% heat-inactivated fetal bovine serum (FBS; Sigma, cat. no. F4135-100 mL). Plates were mixed by shaking then incubated at 35° C. overnight (16-20 h).

Ec 25922 = type: cell-based, Escherichia coli
Protocol: as §2

Ec 25922 64X-1 (COL^R) = type: cell-based, Escherichia coli; conditions: media CA-MHB
Protocol: (§3) Briefly, stock solutions of all antibacterial agents were prepared fresh in appropriate solvents (i.e. PBS, pH 7.4, DMSO, DI, etc.). Stock concentrations for drug conjugates were made at 12.5× the highest final assay concentration. All were serially diluted 2-fold, 8 or 12 times in a 96-well PCR plate (VWR cat. no. 83007-374). Bacterial cell suspensions generated from Mueller-Hinton agar (MHA) plate cultures were prepared in 0.85% saline and adjusted to ˜0.1 OD600 nm. Next, cell suspensions were diluted 1:200 in RPMI containing 5% Luria Broth (LB) to improve bacterial growth (BD Difco, cat. no. 244620) to a concentration of ˜5×10^5 CFU (colony-forming units)/mL. Due to poor solubility in Mueller-Hinton broth media, drug conjugates were evaluated in RPMI 1640 medium (+) L-glutamine, (+) sodium bicarbonate, pH 7.4 (“RPMI B”; Gibco, cat. no. 11875-085) as has been described as a more physiologically-relevant media for susceptibility testing of antibacterial compounds (1). For the conjugates, 92 μL of each cell suspension in RPMI B were added in the same 96-well plate assay format. […] Compounds were tested against a 14-strain panel comprised of E. coli (Ec), A. baumannii (Ab), P. aeruginosa (Pa), and K. pneumoniae (Kp) that were obtained from ATCC (Ec 25922, Ec 2489, Ab 19606, Pa 27853, Pa PAO1, Kp 43816, Kp 10031), Centers for Disease Control and Prevention (Ec AR0349), BEI Resources (Ab AB5075), Micromyx LLC (Ab 8990, Kp 6951), and Belgian Coordinated Collections of Microorganisms (Pa LES431) or generated in-house (Ec 25922 64X-1). […] E. coli strain ATCC 25922 and P. aeruginosa strain LES431 were run in the presence and absence of 50% heat-inactivated fetal bovine serum (FBS; Sigma, cat. no. F4135-100 mL). Plates were mixed by shaking then incubated at 35° C. overnight (16-20 h).

Ec AR0349 (mcr-1, COL^R) = type: cell-based, Escherichia coli; conditions: media CA-MHB
Protocol: as §3

Ab 19606 (COLhet^R) = type: cell-based, Acinetobacter baumannii; conditions: media CA-MHB
Protocol: as §3

Ab 8990 (COL^R) = type: cell-based, Acinetobacter baumannii; conditions: Ab 8990 (COL^R); media CA-MHB
Protocol: as §2

Ab AB5075 = type: cell-based, Acinetobacter baumannii
Protocol: as §2

Pa 27853 = type: cell-based, Pseudomonas aeruginosa
Protocol: as §2

Pa LES431 = type: cell-based, Pseudomonas aeruginosa
Protocol: as §2

Pa PAO1 = type: cell-based, Pseudomonas aeruginosa
Protocol: as §2

Kp 10031 = type: cell-based, Klebsiella pneumoniae
Protocol: as §2

Kp 43816 = type: cell-based, Klebsiella pneumoniae
Protocol: as §2

Kp 6951 (COL^R) = type: cell-based, Klebsiella pneumoniae; conditions: Kp 6951 (COL^R); media CA-MHB
Protocol: as §2

Sa RN = type: cell-based
[1] = system: Ab AB58705 (COL^R) IpxD, mut. (no LPS); type: cell-based, Acinetobacter baumannii; conditions: media CA-MHB

Molecule | % LPS neutralization of TM (LPS from E. coli O111:B4) [%] | MIC (Ec 25922 64X-1 (COL^R)) [µg/mL] | MIC (Ec AR0349 (mcr-1, COL^R)) [µg/mL] | MIC (Ab 19606 (COLhet^R)) [µg/mL] | MIC (Ab 8990 (COL^R)) [µg/mL] | MIC (Kp 6951 (COL^R)) [µg/mL] | MIC (Ec 2469) [µg/mL] | MIC (Ec 25922) [µg/mL] | MIC (Ab AB5075) [µg/mL] | MIC (Pa 27853) [µg/mL] | MIC (Pa LES431) [µg/mL] | MIC (Pa PAO1; PAO1) [µg/mL] | MIC (Kp 10031) [µg/mL] | MIC (Kp 43816) [µg/mL] | MIC (Sa RN) [µg/mL] | % LPS neutralization (LPS from E. coli O111:B4) [%] | also measured
C#CCOCCOCCOCCOCCC(=O)N[C@@H](CCCC)C(=O)N[C@@H](CCN)C(=O)N[C@H](C(=O)NNC(=O)N[C@H]1CCNC(=O)[C@H]([C@@H](C)O)NC(=O)[C@H](CCN)NC(=O)[C@H](CCN)NC(=O)[C@H](CC(C)C)NC(=O)[C@@H](Cc2ccccc2)NC(=O)[C@H](CCN)NC1=O)[C@H](O)CCCCC [Int-100] ({Propargyl(OCH2CH2)4CO}-[Nle][Dab][X3][azaGly][Dab][Dab][dF]L[Dab][Dab]T; lactam 5-C) | 38.9 | – | – | – | – | – | – | – | – | – | – | – | – | – | – | – | –
C#CCOCCOCCOCCOCCN1CCN(C2C[C@@H](C(=O)N[C@@H](CCCC)C(=O)N[C@@H](CCN)C(=O)N[C@H](C(=O)NNC(=O)N[C@H]3CCNC(=O)[C@H]([C@@H](C)O)NC(=O)[C@H](CCN)NC(=O)[C@H](CCN)NC(=O)[C@H](CC(C)C)NC(=O)C(Cc4ccccc4)NC(=O)[C@H](CCN)NC3=O)[C@@H](C)O)[C@H](C(=O)N[C@@H](CCCC)C(=O)N[C@@H](CCN)C(=O)N[C@H](C(=O)NNC(=O)N[C@H]3CCNC(=O)C(C(C)O)NC(=O)[C@H](CCN)NC(=O)[C@H](CCN)NC(=O)[C@H](CC(C)C)NC(=O)[C@@H](Cc4ccccc4)NC(=O)[C@H](CCN)NC3=O)[C@@H](C)O)C2)CC1 (stereo partly shown) [Int-105] (I: [Nle][Dab]T[azaGly][Dab][Dab][dF]L[Dab][Dab][ξT] / II: [Nle][Dab]T[azaGly][Dab][Dab][ξF]L[Dab][Dab]T; lactam I:5-I:C, II:5-II:C; linker I:N-II:N via X8) | 33.2 | 4 (≈ 1.49 µM) | 4 (≈ 1.49 µM) | 2 (≈ 0.744 µM) | >128 | 32 (≈ 11.9 µM) | – | – | – | – | – | – | – | – | – | – | MIC (Ec 2469; Ec 2469, media CA-MHB): 2 µg/mL (≈ 0.744 µM); MIC (Ec 25922; Ec 25922 + FBS (50%, heat-inactivated), media CA-MHB): 0.5 µg/mL; MIC (Ec 25922; Ec 25922, media CA-MHB): 2 µg/mL (≈ 0.744 µM); MIC (Ab AB5075; Ab AB5075, media CA-MHB): 2 µg/mL (≈ 0.744 µM); MIC (Pa 27853; Pa 27853, media CA-MHB): 4 µg/mL (≈ 1.49 µM); MIC (Pa LES431; Pa LES431 + FBS (50%, heat-inactivated), media CA-MHB): 16 µg/mL; MIC (Pa LES431; Pa LES431, media CA-MHB): 2 µg/mL (≈ 0.744 µM); MIC (Pa PAO1; Pa PAO1, media CA-MHB): 4 µg/mL (≈ 1.49 µM); MIC (Kp 10031; Kp 10031, media CA-MHB): 2 µg/mL (≈ 0.744 µM); MIC (Kp 43816; Kp 43816, media CA-MHB): 2 µg/mL (≈ 0.744 µM)
C#CCOCCOCCOCCOCCC(=O)N[C@@H](CCCCCC)C(=O)N[C@@H](CCN)C(=O)N[C@H](C(=O)NNC(=O)N[C@H]1CCNC(=O)[C@H]([C@@H](C)O)NC(=O)[C@H](CCN)NC(=O)[C@H](CCN)NC(=O)[C@H](CC(C)C)NC(=O)[C@@H](Cc2ccccc2)NC(=O)[C@H](CCN)NC1=O)[C@H](O)CCC(F)(F)F [Int-119] ({Propargyl(OCH2CH2)4CO}-[Aoc(2)][Dab][X2][azaGly][Dab][Dab][dF]L[Dab][Dab]T; lactam 5-C) | – | – | – | – | – | – | 2 (≈ 1.35 µM) | 2 (≈ 1.35 µM) | 1 (≈ 0.673 µM) | 4 (≈ 2.69 µM) | 4 (≈ 2.69 µM) | 16 (≈ 10.8 µM) | 2 (≈ 1.35 µM) | 2 (≈ 1.35 µM) | >128 | – | –
C#CCOCCOCCOCCOCCC(=O)N[C@@H](CCC(C)C)C(=O)N[C@@H](CCN)C(=O)N[C@H](C(=O)N(CCN)NC(=O)N[C@H]1CCNC(=O)[C@H]([C@@H](C)O)NC(=O)[C@H](CCN)NC(=O)[C@H](CCN)NC(=O)[C@H](CC(C)C)NC(=O)[C@@H](Cc2ccccc2)NC(=O)[C@H](CCN)NC1=O)[C@@H](C)O [Int-126] ({Propargyl(OCH2CH2)4CO}-[hLeu][Dab]T[X7][Dab][Dab][dF]L[Dab][Dab]T; lactam 5-C) | – | 64 (≈ 44.6 µM) | 8 (≈ 5.58 µM) | 4 (≈ 2.79 µM) | >128 | >128 | 0.5 (≈ 0.349 µM) | 1 (≈ 0.697 µM) | 2 (≈ 1.39 µM) | 2 (≈ 1.39 µM) | 4 (≈ 2.79 µM) | 2 (≈ 1.39 µM) | 1 (≈ 0.697 µM) | 1 (≈ 0.697 µM) | >128 | 19.7 | MIC [1]: 64 µg/mL (≈ 44.6 µM)
colistin sulfate | – | – | – | – | – | – | – | – | – | – | – | – | – | – | – | 9.21 | –
